# Patent US20260234178A1, “PYRANOSIDE COMPOUNDS AND METHODS” (JAMES COOK UNIVERSITY, priority 2022, published 2026)
# What was measured:
# Format in all cases: cell-based
# [1] = tested on: IL-17A; test: Cytokine suppression assay, anti-CD3/anti-CD28 (Dynabead)-stimulated PBMC: IL-17A release; details: 10 μg/mL; anti-CD3/anti-CD28-stimulated human PBMC; 20 h
# Source text: (§1) PBMCs from four healthy donors were isolated from buffy coats using Lymphoprep™ density gradient medium ([sequence] Technologies, Vancouver, Canada), according to the manufacturer's instructions. Isolated cells were cryopreserved in 90% heat-inactivated foetal calf serum (FCS) (Bovogen Biologicals) with 10% dimethyl sulfoxide (DMSO; Sigma-Aldrich, St. Louis, MO, USA) using vapour phase nitrogen until required. On the day of the experiment, PBMCs were thawed and removed from the freezing medium by washing with 9 mL pre-warmed culture medium and centrifugation at 300×g for 5 min. An R10 culture medium of RPMI-1640 media without L-glutamine (Gibco Thermo Fisher Scientific, Waltham, MA, USA), supplemented with 10% heat-inactivated foetal bovine serum (FBS; Bovogen Biologicals, Christchurch, New Zealand), 10,000 units/mL of penicillin+10,000 μg/mL of streptomycin (Thermo Fisher Scientific), and 1× GlutaMAX (Thermo Fisher Scientific) was used for all experiments. […] After incubation, the enzyme was removed by two additional washes with R10. Thawed PBMCs were counted using a CASY cell counter (Roche Innovatis, Germany), and cell densities were adjusted to seed 100,000 cells/well into 96-well plates in a final volume of 100 μL culture medium.
# (§2) For our cytokine suppression assays, inflammatory cytokines (IFN-γ, IL-17A, IL-8, and TNF) were induced in two ways. First, the PBMCs from three donors were activated with a cell stimulation cocktail of 50 ng/mL phorbol 12-myristate 13-acetate and 1 μg/mL ionomycin (P/I; eBioscience). P/1-stimulated cells were treated with 10 μg/mL of U. metrosideros compounds, PCE, CsA (Sigma-Aldrich), or remained untreated. Second, the PBMCs from four donors were cultured in the presence of Dynabeads Human T-Activator CD3/CD28 (Gibco) at a cell-to-bead ratio of 1:1. […] On the day of the experiment, cytokine concentrations were determined using a standard LEGENDplex™ human inflammation panel 1 (BioLegend®), LSRFortessa (BD), and LEGENDplex™ software (version 2022-02-10, Qognit, Inc.).
# [2] = tested on: IFN-γ; test: Cytokine suppression assay, P/I-stimulated PBMC: IFN-γ release; details: 10 μg/mL; P/I-stimulated human PBMC; 20 h treatment; relative to stimulated control
# Source text: as §1, §2
# [3] = tested on: IL-8; test: Cytokine suppression assay, anti-CD3/anti-CD28 (Dynabead)-stimulated PBMC: IL-8 release; details: 10 μg/mL; anti-CD3/anti-CD28-stimulated human PBMC; 20 h
# Source text: (§3) PBMCs from four healthy donors were isolated from buffy coats using Lymphoprep™ density gradient medium ([sequence] Technologies, Vancouver, Canada), according to the manufacturer's instructions. Isolated cells were cryopreserved in 90% heat-inactivated foetal calf serum (FCS) (Bovogen Biologicals) with 10% dimethyl sulfoxide (DMSO; Sigma-Aldrich, St. Louis, MO, USA) using vapour phase nitrogen until required. On the day of the experiment, PBMCs were thawed and removed from the freezing medium by washing with 9 mL pre-warmed culture medium and centrifugation at 300×g for 5 min. […] Thawed PBMCs were counted using a CASY cell counter (Roche Innovatis, Germany), and cell densities were adjusted to seed 100,000 cells/well into 96-well plates in a final volume of 100 μL culture medium.
# (§4) For our cytokine suppression assays, inflammatory cytokines (IFN-γ, IL-17A, IL-8, and TNF) were induced in two ways. […] On the day of the experiment, cytokine concentrations were determined using a standard LEGENDplex™ human inflammation panel 1 (BioLegend®), LSRFortessa (BD), and LEGENDplex™ software (version 2022-02-10, Qognit, Inc.).
# [4] = tested on: IL-17A; test: Cytokine suppression assay, P/I-stimulated PBMC: IL-17A release; details: 10 μg/mL; P/I-stimulated human PBMC; 20 h treatment; relative to stimulated control
# Source text: as §3, §4
# [5] = tested on: IFN-γ; test: Cytokine suppression assay, anti-CD3/anti-CD28 (Dynabead)-stimulated PBMC: IFN-γ release; details: 10 μg/mL; anti-CD3/anti-CD28-stimulated human PBMC; 20 h
# Source text: as §3, §4
Molecule,suppression of Dynabead-induced IL-17A secretion [1] [%],suppression of IFN-γ secretion [2] [%],inhibition of IL-8 release [3] [%],reduction of IL-17A levels [4] [%],suppression of Dynabead-induced IFN-γ secretion [5] [%]
"CC1=CC(=O)CC(C)(C)[C@@]1(O)/C=C/[C@@H](C)O[C@@H]1O[C@H](CO)[C@@H](O)[C@H](O)[C@H]1O [Compound 3, (6S,9R)-roseoside]",38.2,64.4,,,
"CC1=CC[C@@H](C(C)(C)O[C@@H]2O[C@H](COC(=O)c3cc(O)c(O)c(O)c3)[C@@H](O)[C@H](O)[C@H]2O)CC1 [Compound 5, (4S)-α-terpineol 8-O-β-D-(6-O-galloyl)glucopyranoside]",53.7,79.6,24.3,60.9,59.3
galloyl-lawsoniaside A [Compound 4],80.9,95.3,40.5,79.1,78.5
